SMILES strings stand for the structures. Calls of active or inactive are those of the source.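 How the source made its calls: active means compounds raising the signal whose fitted half-maximal concentration is at or below their top tested dose (cut at about 25 µM in these data); inconclusive means flat fit at 30 to 70% activity, or a poor fit; inactive means the rest.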

The test system of this test is INS-1E rat beta cells, no cytokines, CellTiter-Glo ATP, 48 h. Nature of the test: ATP level change in INS-1E without cytokines, dose response, counter-screen for beta-cell apoptosis protection project, INS-1E rat cells, ATP luminescence, cherry pick (AID 463229). A general note: The purpose of a counterscreen is to sort out artefacts and off-target activity.
Usually AC50 stands for the midpoint of the concentration-response curve, whichever way the signal moves. `OC(CNCCC1C=Nc2ccccc21)Cn1c2ccc(Cl)cc2c2cc(Cl)ccc21` (stereo unspecified): the AC50 is 7.93 µM. To `C/C(=N\N1C(=O)c2ccccc2NC1c1ccccc1)c1ccccc1O` (stereo unspecified) belongs 19.1 µM; to `O=C(N/N=C/c1ccccc1O)c1cccc(C(F)(F)F)c1`, 7.18 µM; to `C=CCn1nc([N+](=O)[O-])nc1Sc1cccc2cccnc12`, 6.79 µM.

With `O=C(/C=C/c1ccccc1)NC(=S)NNC(=O)c1cnccn1`, the concentration at half-maximal activity (AC50) was 5.91 µM. For the compound `CCN(CC)c1ccc(/C=N/NC(=O)Cc2cccs2)c(O)c1`, the AC50 is 4.5 µM. For `CC(=O)N1CCN(c2ccc(Oc3ccc([N+](=O)[O-])c(C(F)(F)F)c3)cc2)CC1` the value was 7.04 µM; for `COc1cc([N+](=O)[O-])cc(/C=N/NC(=O)c2cc(-c3ccccc3)nc3ccccc23)c1O`, 9.5 µM. To `CCc1cc[n+](C2=C([O-])c3ccccc3C(=O)/C2=N\S(=O)(=O)c2cccs2)cc1` belongs 9.35 µM; to `Cc1ccn2c(Nc3ccccc3C)c(-c3ccccn3)nc2c1`, 9.55 µM; to `CC1CCCCC1NS(=O)(=O)c1ccc(S(=O)(=O)NCc2ccncc2)cc1` (stereo unspecified), 4.07 µM. With `COc1ccc(-c2nc(NC(=O)c3cc(C(C)(C)C)nn3C)sc2C)cc1`, the concentration at half-maximal activity (AC50) is 17.6 µM.

Regarding `S=c1[nH]nc(-c2cc(-c3ccccc3)n[nH]2)n1/N=C/C(Br)=C/c1ccccc1`, the AC50 is 8.81 µM. For `CSc1ccccc1OCc1cc(C(=O)N2CCc3c(Cl)cccc3C2)no1`, the half-maximal activity concentration (AC50) was 6.99 µM.

As to `O=C(N/N=C/c1ccc(O)cc1O)c1ccc(NC(=O)C2CCCCC2)cc1`, the half-maximal activity concentration (AC50) is 13 µM.

As to `Oc1cccc(/C=N/Nc2ccc(Cl)nn2)c1O`, the half-maximal activity concentration (AC50) was 4.69 µM. To `CC[C@]1(c2ccccc2OC)ON(c2ccccc2C(F)(F)F)C1=O` belongs 4.55 µM; to `CC(NC(=O)c1cc(COc2ccc3ncccc3c2)on1)c1ccc(F)cc1` (stereo unspecified), 5.86 µM.

In the case of `CCOc1ccc(Nc2c3ccccc3nc3ccccc23)cc1`, the AC50 is 7.36 µM. For the compound `Brc1ccc(N/N=C(/N=Nc2nn[nH]n2)c2ccccc2)cc1`, the AC50 was 3.51 µM. For `C(=C\c1nc(N2CCCCCC2)c2ccccc2n1)/c1ccccc1` the value was 5.15 µM; for `FC(F)(F)c1cnc(NNC(=S)Nc2ccc(Cl)cc2)c(Cl)c1`, 6.99 µM; for `CN1C2CCC1/C(=C/c1ccccn1)C(=O)/C2=C\c1ccccn1`, 2.11 µM. To `C/C(=N\NC(=O)c1c(C)nc2ccccn12)c1ccc(O)cc1O` belongs 19.5 µM; to `CCn1cc(C(=O)O)c(=O)c2cc(F)c(N/N=C/c3ccccc3[N+](=O)[O-])cc21`, 7.62 µM. For `O=C1C=C(c2cccs2)C[C@H](c2ccccc2)[C@H]1n1nnc([N+](=O)[O-])n1` the value was 12.8 µM; for `Cc1nc2ccccc2nc1N/N=C/c1ccc(O)cc1O`, 3.6 µM.

As for `O=[N+]([O-])c1ccccc1-c1cc(-c2ccccc2)cc(-c2ccccc2)[n+]1Cc1ccccc1Cl`, the AC50 was 2.23 µM. For `CC(=O)c1cccc(NS(=O)(=O)c2ccc(N/C=C/C(=O)c3ccc(F)cc3)cc2)c1` the value was 5.02 µM. To `COc1ccc(CC(=O)Nc2cccc(-c3nnc(-c4cccc(C)c4)o3)c2)cc1OC` belongs 3.46 µM. For `CCC[C@@H](CN1CCC[C@H]1CN1C(N)=NC[C@@H]1Cc1ccccc1)N1C[C@@H]([C@H](C)CC)N(CCCC2CCCC2)C1=N` the value was 7.72 µM. Turning to `O=C(Nc1ccc(Cl)cc1)c1nc[nH]c1C(=O)NCCN(CCNC(=O)c1[nH]cnc1C(=O)Nc1ccc(Cl)cc1)CCNC(=O)c1[nH]cnc1C(=O)Nc1ccc(Cl)cc1`, the half-maximal activity concentration (AC50) is 8.08 µM.

Take `CCC(C)(C)c1ccc(OCCCC[n+]2cccc(C)c2C)c(C(C)(C)CC)c1`: the AC50 is 0.804 µM. For the compound `O=C(NCCOCCOCCNC(=O)c1cccnc1)c1cccnc1`, the AC50 is 3.83 µM. To `Cc1nc2cc(-c3ccccc3)sc2c(=O)n1N` belongs 3.6 µM; to `CCN(CC)CCn1c2ccccc2c2cnc(N)c(C#N)c21`, 14.3 µM. For `C/C(=N\NC(=O)c1nnn(-c2nonc2N)c1CN1CCc2ccccc21)c1ccccc1O` the value was 11.4 µM; for `Cc1c(C(=O)Nc2nc(-c3ccccn3)cs2)oc2ccccc12`, 17.4 µM; for `CC(C)(C)c1cc[n+](C2=C([O-])c3ccccc3C(=O)/C2=N\S(=O)(=O)c2cccs2)cc1`, 7.44 µM. Consider `Cc1cc(Nc2nc3ccccc3nc2Cl)n(-c2ccc([N+](=O)[O-])cc2)n1`, for which the AC50 is 12 µM. For `FC(F)(F)c1nnc(-c2ccccc2)nc1Sc1ccc(Cl)cc1` the value was 12.6 µM. To `CCCCCCOC(=O)C[N+](C)(C)CCOC1CC2CCC1(C)C2(C)C` (stereo unspecified) belongs 4.48 µM; to `COc1cccc(/C=N/Nc2snc(SC)c2C#N)c1O`, 5.12 µM. To `CCCc1sc(N/N=C/c2ccccn2)nc1-c1ccc(F)cc1` belongs 2.27 µM. As to `O=C(Nc1nc(-c2ccccn2)cs1)c1ccc([N+](=O)[O-])o1`, the half-maximal activity concentration (AC50) is 6.03 µM.

For the compound `COC(=O)C1CCN(C(=O)c2cc(-c3ccc(Cl)s3)nc3ccccc23)CC1`, the AC50 is 3.24 µM. For `COc1ccc2nc(N=Nc3ccc(O)c4ccccc34)sc2c1` the value was 7.16 µM; for `CCn1c(=O)c([N+](=O)[O-])c(Cl)c2ccccc21`, 7.4 µM; for `N=c1c2ccccc2nc2n1CCCCCCCCCCC2`, 13.9 µM.

`C=CC[n+]1c(/C=C2\C=Cc3cc(C)ccc3N2CC)ccc2ccccc21`: the AC50 was less than 0.195 µM. Take `Cc1ccc(N=Nc2c(O)ccc3n[nH]nc23)cc1`: the AC50 was 4.37 µM.

For the compound `CCN(CC)CCC(=O)Nc1cccc2c1C(=O)c1ccccc1C2=O`, the AC50 is 12 µM. As for `Cc1ccc2c(c1)S/C(=C/c1ccc[n+](C)c1)N2CCO`, the concentration at half-maximal activity (AC50) was 3.24 µM.

With `CCn1c(Cl)c(C=O)s/c1=N\S(=O)(=O)c1ccccc1`, the concentration at half-maximal activity (AC50) is 6.63 µM. To `CCc1ccc(C2CC(c3cccc(Cl)c3)n3nc(N)nc3N2)cc1` (stereo unspecified) belongs 14.7 µM; to `O=C1c2ccc3c4c(ccc(c24)C(=O)N1c1cccc(O)c1)C(=O)N(c1cccc(O)c1)C3=O`, 3.36 µM. For `COc1cccc(/C=N/NC(=O)c2ccc(-c3ccccc3)cc2)c1O` the value was 13.1 µM; for `Oc1ccc(Br)cc1CNc1cccc2cccnc12`, 12.8 µM.

On to `O=C(Nc1nc(-c2ccccn2)cs1)c1ccccc1-n1cnnn1`, for which the concentration at half-maximal activity (AC50) is 5.32 µM. `Cc1cc(N2CCC(C)CC2)nc(NCc2ccccc2)n1`: the concentration at half-maximal activity (AC50) was 12.3 µM.

Regarding `COc1cnc(-c2ccccn2)nc1NC(C)C`, the AC50 was 17.2 µM. To `Cc1nc(C)c(C(=O)N/N=C/c2cc(Br)ccc2O)s1` belongs 7.57 µM; to `COc1ccccc1N1CCN(Cc2ccc(O)c3ncccc23)CC1`, 5.14 µM; to `COc1cccc(/C=N/NC(=O)CN2CC(c3ccccc3)CC2=O)c1O` (stereo unspecified), 18.7 µM.

With `NC(=S)N/N=C/c1ccc(C23CC4CC(CC(C4)C2)C3)cc1`, the AC50 was 12.2 µM.

In the case of `O=C(Nc1ccc(C(=O)Nc2ccccc2Cl)cc1)c1cccnc1`, the half-maximal activity concentration (AC50) is 1.85 µM. As for `COc1ccccc1NC(=O)c1cc2cc(Br)ccc2cc1O`, the half-maximal activity concentration (AC50) was 7.8 µM. Consider `Cc1cc(C)cc(Oc2cc(NC(=O)c3cn(C)nc3C)cc([N+](=O)[O-])c2)c1`, for which the AC50 is 2.58 µM.

Turning to `O=C(NCc1cccnc1)c1ccc(NC(=O)c2ccc(Br)cc2)cc1`, the AC50 is less than 0.195 µM. For the compound `N/C(=N\NC(=O)c1sccc1OCc1ccc(Cl)cc1Cl)c1ccccn1`, the AC50 was 11.8 µM. Regarding `CCCC(=O)NC(NC(=S)Nc1ccc(N=Nc2ccccc2)cc1)C(Cl)(Cl)Cl` (stereo unspecified), the half-maximal activity concentration (AC50) was 7.51 µM. For `COc1ccc(Cc2nnc(N/N=C/c3ccccc3O)[nH]c2=O)cc1OC` the value was 4.32 µM; for `CCC(C)Nc1nc(-c2ccccn2)nc2ccccc12` (stereo unspecified), 9.01 µM. To `COc1ccc(Cn2c(SCc3ccc(C)cc3)nc3cc(OC)c(OC)cc3c2=N)cc1Cl` belongs 6.89 µM; to `COc1ccc2c(C(=O)NCc3ccc4c(c3)OCO4)c(-c3ccc(S(C)(=O)=O)cc3)sc2c1`, 9.16 µM.

`N#C/C(=N\Nc1ccc(Cl)cc1)C(=O)c1ccccc1`: the AC50 was 2.84 µM. Turning to `CC1(C)C[C@@H]2C[C@@](C)(CN2C(=O)c2cc(COc3cccc(C(F)(F)F)c3)on2)C1`, the half-maximal activity concentration (AC50) was 17 µM.

In the case of `Cc1ccc(-c2nc(N/N=C/c3cccnc3)c3ccccc3n2)cc1`, the AC50 is 9.02 µM. To `CCOC(=O)c1c(C)[nH]c(C)c1C(=O)CSc1nc2ccccc2c(=O)n1-c1ccc(CC)cc1` belongs 5.33 µM; to `CN1/C(=C\P(=O)(N(C)C)N(C)C)C(C)(C)c2ccccc21`, 4.86 µM; to `O=C(N/N=C\c1c(O)ccc2ccccc12)c1ccc(Cn2cccn2)o1`, 4.39 µM. For `O=C(Nc1ccc2nc3n(c(=O)c2c1)CCCCC3)c1c(F)ccc([N+](=O)[O-])c1F` the value was 6.65 µM; for `Cc1cccc2c(C(=O)N3CCN(c4ccccn4)CC3)cc(-c3cccc(Br)c3)nc12`, 3.08 µM. Consider `COc1ccc([N+](=O)[O-])c(S(=O)(=O)c2ccc(Cl)cc2)n1`, for which the AC50 was 7.61 µM.

Regarding `CN(C)C(=O)c1ccc(NC(=O)c2cccc(S(=O)(=O)N3CCCCCC3)c2)cc1`, the AC50 is > 26 µM (inactive). To `CCC(C)Sc1cccc(-c2nc3ccc(C)cn3c2NCc2ccccc2)c1` (stereo unspecified) belongs 9.3 µM. To `Cc1cc(C)nc(N/N=C/c2cc(Br)ccc2O)n1` belongs 12.6 µM; to `CCCCCCCCCCOC(=O)Cn1c(COc2ccccc2OC)[n+](C)c2ccccc21`, 1.09 µM. To `Fc1ccc(CN(Cc2ccccc2)C(c2cccs2)c2nnnn2C2CCCCC2)cc1` (stereo unspecified) belongs 5.93 µM; to `Cc1ccc(C[n+]2cccc(-c3ccccc3)c2)c(C)c1`, 5.1 µM; to `Cc1nc2c(=O)n(C)c(=O)nc-2n(C)n1`, 2.06 µM. Take `O=C(NC1CCCC1)c1cc(COc2ccc3ncccc3c2)on1`: the AC50 is 5.91 µM. To `CCN(CC)c1ccc(/C=N/NC(=O)CCC(=O)NCc2ccccc2)c(O)c1` belongs 7.22 µM; to `O=C(N/N=C/c1cccc(F)c1)c1c(O)c2ccccc2[nH]c1=O`, 4.35 µM; to `Cc1cc(C)n(Cc2ccc(NC(=O)c3ccc(COc4ccccc4Br)cc3)cc2)n1`, 8.33 µM. To `O=C(N/N=C/c1cc(Br)c(O)c(Br)c1O)c1ccc2c(c1)OCCO2` belongs 8.27 µM.

Values taken from PubChem BioAssay AID463229 (Broad Institute, 2010).
